Values joined by “and” are separate entries in the source; they are usually repeats but may differ in a detail not shown here. Identical values can stand only once. Like-named read-outs stand apart in the source and are kept apart here. Marks after values point to notes of the source that are not given here. Residues, ends and D or L forms follow the SMILES beside them. *: point of attachment. X1 = CCCCCCCCCCCCCCCCn1cc[n+](Cc2cn(CC(=O)*)nn2)c1; X2 = Cn1cc[n+](Cc2cn(CC(=O)*)nn2)c1
Experiments:
Type in all cases: cell-based
E. coli ATCC 25922 = experiment: MIC (CLSI) against E. coli ATCC 25922; details: E. coli ATCC 25922, n = 3
P. aeruginosa ATCC 27853 = experiment: MIC (CLSI) against P. aeruginosa ATCC 27853; details: P. aeruginosa ATCC 27853, n = 3
S. aureus ATCC 29213 = experiment: MIC (CLSI) against S. aureus ATCC 29213; details: S. aureus ATCC 29213, n = 3
E. faecalis ATCC 29212 = experiment: MIC (CLSI) against E. faecalis ATCC 29212; details: E. faecalis ATCC 29212, n = 3
[1] = system: Candida albicans (ATCC 90028); experiment: Antifungal MIC (EUCAST) against C. albicans; details: C. albicans ATCC 90028, n = 2
[2] = system: Candida glabrata (ATCC 90030); experiment: Antifungal MIC (EUCAST) against C. glabrata; details: C. glabrata ATCC 90030, n = 2
[3] = system: Candida parapsilosis (ATCC 22019); experiment: Antifungal MIC (EUCAST) against C. parapsilosis; details: C. parapsilosis ATCC 22019, n = 2
K. pneumonia ATCC 138830 = experiment: MIC (CLSI) against K. pneumoniae ATCC reference strain; details: K. pneumonia ATCC 138830, n = 3
[4] = system: S. epidermidis ATCC 14990; experiment: MIC (CLSI) against S. epidermidis ATCC 14990; details: S. epidermidis ATCC 14990, n = 3
S. pyogenes ATCC 19615 = experiment: MIC (CLSI) against S. pyogenes ATCC 19615; details: S. pyogenes ATCC 19615, n = 3
[5] = system: K. pneumoniae (KP010) MDR clinical isolate; details: MDR isolate KP010, n = 3
[6] = system: P. aeruginosa (PA004) MDR clinical isolate; details: MDR isolate PA004, n = 3
[7] = system: S. aureus (SA007) MDR clinical isolate; details: for MIC: MDR isolate SA007, n = 3
S. aureus (ATCC 29213) = experiment: MIC and MBC in MHB and simulated wound fluid (SWF); details: for MBC: S. aureus ATCC 29213 in MHB, n = 3; for antibacterial activity in simulated wound fluid (SWF): S. aureus, SWF compared with MHB
Procedure: The antibacterial activity of C16Im-KTTKS and KTTK(C16Im)S was also assessed in SWF (50) against S. aureus (ATCC 29213), to check if it was preserved in this medium.

[8] = system: human dermal fibroblasts (HDF); experiment: Collagen production in vitro (Sircol kit); details: 5 μM, versus negative control
Procedure: FIG. 3—Collagen synthesis by Human Dermal Fibroblasts (HDF), in presence of C16-KTTKS-OH (Matrixyl®), KTTK (C16Im)S and C16Im-KTTKS at 5 μM, using the Sircol™ Kit. Data are presented as mean±SEM (3 independent experiments in triplicates) expressed in collagen amount (% of control); *p<0.05, **p<0.01.
The point of conjugating antimicrobial ILs to a collagenesis-inducing peptide was to afford a simple construct able to exert a dual antimicrobial and skin rebuilding action. Therefore, the two best IL-KTTKS conjugates were further tested for their ability to promote collagen production by human dermal fibroblasts (HDF) in vitro. This was assessed using the Sircol® kit assay, whereby the amount of newly formed collagen in the ECM that is deposited in the microwell-plated cell cultures is solubilized in an acidic medium and next quantified through a collagen standard curve according to the Sircol® kit assay procedure (55). Assays were conducted in different conditions for comparison, namely, in the presence of the reference cosmeceutical Matrixyl® (positive control—C16-KTTKS-OH), of the test conjugates KTTK(C16Im)S and C16Im-KTTKS, and in the absence of any peptide (negative control).

[9] = system: Gram-negative and Gram-positive bacteria (ATCC reference strains); experiment: Antibacterial activity against ATCC reference strains, statements across species; details: Gram-positive species at MIC values
Procedure: The antimicrobial activity of the IL-KTTKS conjugates was assessed in vitro against reference bacterial strains (American Type Culture Collection, ATCC). The minimal inhibitory concentration (MIC) was determined according to the Clinical and Laboratory Standards Institute (CLSI) guidelines (43) against Gram-positive (S. aureus, E. faecalis) and Gram-negative (E. coli, P. aeruginosa) bacteria. […] IL are in agreement with those previously reported (44).

Compound | MIC (E. coli ATCC 25922) | MIC (P. aeruginosa ATCC 27853) | MIC (S. aureus ATCC 29213) | MIC (E. faecalis ATCC 29212) | MIC (K. pneumonia ATCC 138830) | MIC [1] | MIC [2] | MIC [3] | further results
C[C@@H](O)[C@H](NC(=O)[C@H](CCCCN)NC(=O)Cn1cc(C[n+]2ccn(C)c2)nn1)C(=O)N[C@H](C(=O)N[C@@H](CCCCN)C(=O)N[C@@H](CO)C(N)=O)[C@@H](C)O [MeIm-KTTKS] (X2-KTTKS-NH2; N-terminus and C-terminus assumed) | > 633.4 µg/mL | > 825.9 μM and > 633.4 μg/mL | > 825.9 μM and > 633.4 μg/mL | > 825.9 μM and > 633.4 μg/mL | – | – | – | – | –
C[C@@H](O)[C@H](NC(=O)[C@@H](NC(=O)[C@@H](N)CCCCN)[C@@H](C)O)C(=O)N[C@@H](CCCCn1cc(C[n+]2ccn(C)c2)nn1)C(=O)N[C@@H](CO)C(N)=O [KTTK(MeIm)S] | > 677.3 µg/mL | > 954.2 μM and > 677.3 μg/mL | > 954.2 μM and > 677.3 μg/mL | > 954.2 μM and > 677.3 μg/mL | – | – | – | – | –
C[C@@H](O)[C@H](NC(=O)[C@@H](NC(=O)[C@@H](N)CCCCn1cc(C[n+]2ccn(C)c2)nn1)[C@@H](C)O)C(=O)N[C@@H](CCCCN)C(=O)N[C@@H](CO)C(N)=O [K(MeIm)TTKS] | > 731.2 µg/mL | > 1030.1 μM and > 731.2 μg/mL | > 1030.1 μM and > 731.2 μg/mL | > 1030.1 μM and > 731.2 μg/mL | – | – | – | – | –
OC(Cn1cncn1)(Cn1cncn1)c1ccc(F)cc1F [Fluconazole, reference compound] | – | – | – | – | – | – | – | – | MIC ([1]; Candida albicans, ATCC90028, read-out: MIC): 0.5 µg/mL; MIC ([2]; Nakaseomyces glabratus, ATCC90030, read-out: MIC): 8 µg/mL; MIC ([3]; ATCC22019, read-out: MIC): 2 µg/mL
CCCCCCCCCCCCCCCCn1cc[n+](C)c1.[Br-] [[C16M1Im][Br], reference compound] | 60 µM | >240 µM | 0.94^d μM | 0.94^c μM | 60 µM | 0.93 µM | 0.93 µM | 0.93 µM | –
CCCCCCCCCCCCCCCCn1cc[n+](Cc2cn(CC(=O)N[C@@H](CCCCN)C(=O)N[C@H](C(=O)N[C@H](C(=O)N[C@@H](CCCCN)C(=O)N[C@@H](CO)C(N)=O)[C@@H](C)O)[C@@H](C)O)nn2)c1 [Peptide C16Im-KTTKS] (X1-KTTKS-NH2; N-terminus and C-terminus assumed) | (14.0) μg/mL | (28.0) μg/mL | (14.0) μg/mL | (28.0) μg/mL | (26.8) μg/mL | 4.6 µg/mL | (4.6) μg/mL | (2.3) μg/mL | MIC [4]: (9.3) μg/mL; MIC (S. pyogenes ATCC 19615): (18.5) μg/mL; MIC [5]: (37.0) μg/mL; MIC [6]: (18.5) μg/mL; MIC relative to that of ciprofloxacin ([7]; MDR isolate SA007): ~10 fold; MIC [7]: (18.5)^a μg/mL; MBC (S. aureus (ATCC 29213)): [32-64] μg/mL; antibacterial activity in simulated wound fluid (SWF) (S. aureus (ATCC 29213)): retain; collagen production (collagen amount, % of control) [8]: produce more collagen; bacteriostatic or bactericidal action [9]: bactericidal
C[C@@H](O)[C@H](NC(=O)[C@@H](NC(=O)[C@@H](N)CCCCn1cc(C[n+]2ccn(C)c2)nn1)[C@@H](C)O)C(=O)N[C@@H](CCCCn1cc(C[n+]2ccn(C)c2)nn1)C(=O)N[C@@H](CO)C(N)=O [K(MeIm)TTK(MeIm)S] | > 1067.4 µg/mL | > 1245.5 μM and > 1067.4 μg/mL | > 1245.5 μM and > 1067.4 μg/mL | > 1245.5 μM and > 1067.4 μg/mL | – | – | – | – | –
CCCCCCCCCCCCCCCCn1cc[n+](Cc2cn(CCCC[C@H](NC(=O)[C@@H](NC(=O)[C@@H](NC(=O)[C@@H](N)CCCCN)[C@@H](C)O)[C@@H](C)O)C(=O)N[C@@H](CO)C(N)=O)nn2)c1 [KTTK(C16Im)S] | (6.45) μg/mL | (29.9) μg/mL | (12.9) μg/mL | (29.9) μg/mL | (49.5) μg/mL | 5.0 µg/mL | (5.0) μg/mL | (2.5) μg/mL | MIC [4]: (5.0) μg/mL; MIC (S. pyogenes ATCC 19615): (10.0) μg/mL; MIC [5]: 20.0 µg/mL; MIC [6]: 21.7 μM and 20.0 μg/mL; MIC [7]: 21.7 μM and 20.0 μg/mL; MBC (S. aureus (ATCC 29213)): [64-128] μg/mL; antibacterial activity in simulated wound fluid (SWF) (S. aureus (ATCC 29213)): slightly decrease; collagen production (collagen amount, % of control) [8]: produce more collagen; bacteriostatic or bactericidal action [9]: bactericidal
CCCCCCCCCCCCCCn1cc[n+](Cc2cn(CCCC[C@H](NC(=O)[C@@H](NC(=O)[C@@H](NC(=O)[C@@H](N)CCCCN)[C@@H](C)O)[C@@H](C)O)C(=O)N[C@@H](CO)C(N)=O)nn2)c1 [KTTK(C14Im)S] | (26.3) μg/mL | (52.6)^b μg/mL | (26.3) μg/mL | (52.6)^b μg/mL | – | – | – | – | –

Source: patent publication US20250360179A1, “PEPTIDE-IONIC LIQUID CONJUGATE FOR THE PREVENTION AND/OR TREATMENT OF SKIN DISORDERS” (UNIVERSIDADE DO PORTO, priority 2022, published 2025)
